In ChEMBL document CHEMBL1201862, “PubChem BioAssay data set” (2004):
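These data come from cells grown in 96-well plates and exposed to compound for 48 hours at five concentrations. Abbreviation: GI50, concentration required for 50% inhibition of growth.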 The source made the active and inactive calls. Cut-off read from the data, not from the text of the source: active = GI50 up to about 1.1 µM and inactive = higher.

Assays:
Experiment in all cases: growth of human tumour cells (NCI), 48 h
786-0 = system: 786-0
MDA-MB-231 = system: MDA-MB-231
OVCAR-4 = system: OVCAR-4
SK-MEL-5 = system: SK-MEL-5
TK-10 = system: TK-10
UACC-257 = system: UACC-257
MOLT-4 = system: MOLT-4
COLO 205 = system: COLO 205
HT-29 = system: HT-29
NCI-H23 = system: NCI-H23
SN12C = system: SN12C
KM12 = system: KM12
Malme-3M = system: Malme-3M
SF-295 = system: SF-295
T47D = system: T47D
BT-549 = system: BT-549
HOP-62 = system: HOP-62
HCT-15 = system: HCT-15
HCT-116 = system: HCT-116
EKVX = system: EKVX
SF-539 = system: SF-539
NCI/ADR-RES = system: NCI/ADR-RES
ACHN = system: ACHN
RXF 393 = system: RXF 393
SK-MEL-28 = system: SK-MEL-28
A498 = system: A498
U-251 = system: U-251
DU-145 = system: DU-145
HOP-92 = system: HOP-92
OVCAR-8 = system: OVCAR-8
LOX IMVI = system: LOX IMVI
MDA-MB-435 = system: MDA-MB-435
SK-OV-3 = system: SK-OV-3
SF-268 = system: SF-268
OVCAR-3 = system: OVCAR-3
CAKI-1 = system: CAKI-1
NCI-H226 = system: NCI-H226
NCI-H522 = system: NCI-H522
RPMI-8226 = system: RPMI-8226
SNB-75 = system: SNB-75
OVCAR-5 = system: OVCAR-5
SW-620 = system: SW-620
CCRF-CEM = system: CCRF-CEM
HL-60 = system: HL-60
IGROV-1 = system: IGROV-1
Hs-578T = system: Hs-578T
NCI-H460 = system: NCI-H460
PC-3 = system: PC-3
UACC-62 = system: UACC-62
A549 = system: A549
M14 = system: M14
UO-31 = system: UO-31
SK-MEL-2 = system: SK-MEL-2
MCF7 = system: MCF7
K562 = system: K562
SNB-19 = system: SNB-19
SR = system: SR

N#Cc1c2c(c(Nc3cccc(C(F)(F)F)c3)n3c1nc1ccccc13)CCC2
GI50 (786-0): > 100 µM (inactive) | GI50 (MDA-MB-231): > 100 µM (inactive) | GI50 (OVCAR-4): > 100 µM (inactive) | GI50 (SK-MEL-5): > 100 µM (inactive) | GI50 (TK-10): > 100 µM (inactive) | GI50 (UACC-257): > 100 µM (inactive) | GI50 (MOLT-4): > 100 µM (inactive) | GI50 (COLO 205): > 100 µM (inactive) | GI50 (HT-29): > 100 µM (inactive) | GI50 (NCI-H23): > 100 µM (inactive) | GI50 (SN12C): > 100 µM (inactive) | GI50 (KM12): > 100 µM (inactive) | GI50 (Malme-3M): > 100 µM (inactive) | GI50 (SF-295): > 100 µM (inactive) | GI50 (T47D): > 100 µM (inactive) | GI50 (BT-549): 60.7 µM (inactive) | GI50 (HOP-62): > 100 µM (inactive) | GI50 (HCT-15): > 100 µM | GI50 (HCT-116): > 100 µM (inactive) | GI50 (EKVX): > 100 µM (inactive) | GI50 (SF-539): > 100 µM (inactive) | GI50 (NCI/ADR-RES): > 100 µM (inactive) | GI50 (ACHN): > 100 µM (inactive) | GI50 (RXF 393): > 100 µM (inactive) | GI50 (SK-MEL-28): > 100 µM (inactive) | GI50 (A498): > 100 µM (inactive) | GI50 (U-251): > 100 µM (inactive) | GI50 (DU-145): > 100 µM (inactive) | GI50 (HOP-92): 6.5 µM (inactive) | GI50 (OVCAR-8): > 100 µM (inactive) | GI50 (LOX IMVI): > 100 µM (inactive) | GI50 (MDA-MB-435): > 100 µM (inactive) | GI50 (SK-OV-3): > 100 µM (inactive) | GI50 (SF-268): > 100 µM (inactive) | GI50 (OVCAR-3): > 100 µM (inactive) | GI50 (CAKI-1): > 100 µM (inactive) | GI50 (NCI-H226): > 100 µM (inactive) | GI50 (NCI-H522): > 100 µM (inactive) | GI50 (RPMI-8226): > 100 µM (inactive) | GI50 (SNB-75): > 100 µM (inactive) | GI50 (OVCAR-5): > 100 µM (inactive) | GI50 (SW-620): > 100 µM (inactive)

CCCc1cn2c(/C=N/NC(=N)N)c(-c3cc([N+](=O)[O-])c(Cl)cc3Cl)nc2s1
GI50 (786-0): 1.58 µM (inactive) | GI50 (MDA-MB-231): 1.63 µM (inactive) | GI50 (CCRF-CEM): 0.216 µM (active) | GI50 (HL-60): 1.76 µM (inactive) | GI50 (IGROV-1): 1.69 µM (inactive) | GI50 (OVCAR-4): 1.46 µM (inactive) | GI50 (SK-MEL-5): 1.61 µM (inactive) | GI50 (TK-10): 1.12 µM (inactive) | GI50 (UACC-257): 1.66 µM (inactive) | GI50 (MOLT-4): 0.17 µM (active) | GI50 (COLO 205): 1.48 µM (inactive) | GI50 (Hs-578T): 1.85 µM (inactive) | GI50 (HT-29): 1.22 µM (inactive) | GI50 (NCI-H23): 1.67 µM (inactive) | GI50 (SN12C): 1.77 µM (inactive) | GI50 (KM12): 1.5 µM (inactive) | GI50 (NCI-H460): 1.72 µM (inactive) | GI50 (PC-3): 1.67 µM (inactive) | GI50 (SF-295): 1.73 µM (inactive) | GI50 (UACC-62): 1.77 µM (inactive) | GI50 (T47D): 1.38 µM (inactive) | GI50 (A549): 1.48 µM (inactive) | GI50 (BT-549): 2.15 µM (inactive) | GI50 (HOP-62): 1.58 µM (inactive) | GI50 (HCT-15): 1.66 µM | GI50 (M14): 1.74 µM (inactive) | GI50 (HCT-116): 1.32 µM (inactive) | GI50 (UO-31): 1.79 µM (inactive) | GI50 (SF-539): 1.88 µM (inactive) | GI50 (NCI/ADR-RES): 1.99 µM (inactive) | GI50 (ACHN): 1.77 µM (inactive) | GI50 (SK-MEL-2): 1.87 µM (inactive) | GI50 (MCF7): 1.4 µM (inactive) | GI50 (K562): 1.23 µM (inactive) | GI50 (RXF 393): 1.9 µM (inactive) | GI50 (SNB-19): 1.48 µM (inactive) | GI50 (A498): 1.55 µM (inactive) | GI50 (U-251): 1.58 µM (inactive) | GI50 (DU-145): 1.82 µM (inactive) | GI50 (HOP-92): 1.69 µM (inactive) | GI50 (OVCAR-8): 1.54 µM (inactive) | GI50 (LOX IMVI): 1.41 µM (inactive) | GI50 (MDA-MB-435): 1.8 µM (inactive) | GI50 (SK-OV-3): 1.91 µM (inactive) | GI50 (SF-268): 1.69 µM (inactive) | GI50 (OVCAR-3): 1.5 µM (inactive) | GI50 (SR): 1.45 µM (inactive) | GI50 (CAKI-1): 1.77 µM (inactive) | GI50 (NCI-H226): 1.82 µM (inactive) | GI50 (NCI-H522): 2.18 µM (inactive) | GI50 (RPMI-8226): 1.32 µM (inactive) | GI50 (SNB-75): 1.71 µM (inactive) | GI50 (OVCAR-5): 1.75 µM (inactive) | GI50 (SW-620): 1.61 µM (inactive)

COc1cccc(/C=C2\CCCc3ccccc3C2=O)c1
GI50 (786-0): 13.1 µM (inactive) | GI50 (MDA-MB-231): 13.8 µM (inactive) | GI50 (CCRF-CEM): 12.3 µM (inactive) | GI50 (HL-60): 13.8 µM (inactive) | GI50 (IGROV-1): 17.9 µM (inactive) | GI50 (OVCAR-4): 13.5 µM (inactive) | GI50 (TK-10): 26.4 µM (inactive) | GI50 (UACC-257): 15.2 µM (inactive) | GI50 (MOLT-4): 19.4 µM (inactive) | GI50 (COLO 205): 17.8 µM (inactive) | GI50 (Hs-578T): 17.9 µM (inactive) | GI50 (HT-29): 17.1 µM (inactive) | GI50 (NCI-H23): 15.1 µM (inactive) | GI50 (SN12C): 16.1 µM (inactive) | GI50 (KM12): 17.6 µM (inactive) | GI50 (NCI-H460): 14.5 µM (inactive) | GI50 (PC-3): 16.2 µM (inactive) | GI50 (Malme-3M): 19.6 µM (inactive) | GI50 (SF-295): 14.9 µM (inactive) | GI50 (UACC-62): 12.9 µM (inactive) | GI50 (A549): 23 µM (inactive) | GI50 (BT-549): 16.2 µM (inactive) | GI50 (HOP-62): 16.1 µM (inactive) | GI50 (HCT-15): 10.9 µM | GI50 (M14): 13 µM (inactive) | GI50 (HCT-116): 13.3 µM (inactive) | GI50 (UO-31): 15.1 µM (inactive) | GI50 (EKVX): 21.3 µM (inactive) | GI50 (SF-539): 17.1 µM (inactive) | GI50 (NCI/ADR-RES): 17.9 µM (inactive) | GI50 (ACHN): 26.4 µM (inactive) | GI50 (SK-MEL-2): 13.8 µM (inactive) | GI50 (MCF7): 13.6 µM (inactive) | GI50 (K562): 16.1 µM (inactive) | GI50 (SNB-19): 11.7 µM (inactive) | GI50 (SK-MEL-28): 18.1 µM (inactive) | GI50 (U-251): 15 µM (inactive) | GI50 (DU-145): 19.1 µM (inactive) | GI50 (HOP-92): 13.4 µM (inactive) | GI50 (OVCAR-8): 19.2 µM (inactive) | GI50 (LOX IMVI): 17.4 µM (inactive) | GI50 (MDA-MB-435): 10.1 µM (inactive) | GI50 (SK-OV-3): 30.5 µM (inactive) | GI50 (SF-268): 10 µM (inactive) | GI50 (OVCAR-3): 17.1 µM (inactive) | GI50 (SR): 13 µM (inactive) | GI50 (CAKI-1): 23.4 µM (inactive) | GI50 (NCI-H226): 18.8 µM (inactive) | GI50 (NCI-H522): 15 µM (inactive) | GI50 (RPMI-8226): 6.35 µM (inactive) | GI50 (SNB-75): 23.4 µM (inactive) | GI50 (OVCAR-5): 15.3 µM (inactive) | GI50 (SW-620): 17.3 µM (inactive)
